Measured values taken from patent US12247004B2, “2-amino-N-(amino-oxo-aryl-lambda6-sulfanylidene)acetamide compounds and their therapeutic use” (Oxford Drug Design Limited, priority 2019, dated 2025).
pIC50: −log10 of the molar value. Values after ≈ are worked out from the molar mass of the structure shown. Where two headings read alike, the source gives them in different places.

What was measured:
[1] = biological target: Leucyl-tRNA synthetase (LeuRS) (Escherichia coli (strain K12), UniProt P07813); assay: Leucyl-tRNA synthetase enzyme inhibition (AMP-Glo; single point % inhibition at 100 μM and IC50); type: biochemical
Description: Study 1—Enzyme Inhibition
The aminoacylation reaction catalyzed by aminoacyl-tRNA synthetases (aaRS) takes place in two steps. In the first step, aaRS activates its cognate amino acid with ATP; and in the second step the activated amino acid is loaded to its corresponding tRNA. This reaction can be summarized as follows: aaRS+aa+ATP=aaRS-aa-AMP+PPi aaRS-aa-AMP+tRNA=aa-tRNA+AMP+aaRS
wherein: aaRS, aminoacyl-tRNA synthetase; aa, amino acid; aaRS-aa-AMP, enzyme-bound to aminoacyl-adenylate; AMP, adenosine monophosphate; aa-tRNA, aminoacyl-tRNA, PPi, inorganic pyrophosphate.
a. Single Point Percentage Inhibition
The activity of the pathogenic aaRSs was monitored by measuring AMP production using the commercial kit AMP-Glo (Promega, Madison, USA).
Ligand stock solutions were prepared in 100% DMSO at 10 mM concentration. An assay buffer consisting of 100 mM Tris HCl pH 7.6, 40 mM MgCl, 20 mM KCl and 150 mM NaCl was prepared in dH2O.
Using the same enzymatic assay in a 384-well plate format, ten point concentration response curves were generated for each compound using a top concentration of 10 μM. The known inhibitor LeuAMS was used as a positive control for the LeuRS assay. 100% DMSO was used as a negative control. The IC50 was calculated based on non-linear regression analysis.

[2] = system: bacteria (ATCC reference strains); assay: Antibacterial activity, MIC by broth micro-dilution (CLSI)
[3] = Escherichia coli, ATCC25922, read-out: Antibacterial Activity (MIC), A = E. coli ATCC 25922
[4] = Escherichia coli, BAA2469, read-out: Antibacterial Activity (MIC), G = E. coli BAA-2469
[5] = E. coli LeuRS, read-out: Enzyme Inhibition - IC50, E. coli LeuRS
[6] = Klebsiella pneumoniae, ATCC700603, read-out: Antibacterial Activity (MIC), C = K. pneumoniae ATCC 700603
[7] = Haemophilus influenzae, ATCC49247, read-out: Antibacterial Activity (MIC), F = H. influenzae ATCC 49247
[8] = Acinetobacter baumannii, read-out: Antibacterial Activity (MIC), E = A. baumannii B1931
[9] = Enterobacter cloacae, read-out: Antibacterial Activity (MIC), B = Enterobacter cloacae B1966
[10] = Pseudomonas aeruginosa, ATCC27853, read-out: Antibacterial Activity (MIC), D = P. aeruginosa ATCC 27853

Leucyl-tRNA synthetase (LeuRS), sequence (P07813 whole entry, looked up): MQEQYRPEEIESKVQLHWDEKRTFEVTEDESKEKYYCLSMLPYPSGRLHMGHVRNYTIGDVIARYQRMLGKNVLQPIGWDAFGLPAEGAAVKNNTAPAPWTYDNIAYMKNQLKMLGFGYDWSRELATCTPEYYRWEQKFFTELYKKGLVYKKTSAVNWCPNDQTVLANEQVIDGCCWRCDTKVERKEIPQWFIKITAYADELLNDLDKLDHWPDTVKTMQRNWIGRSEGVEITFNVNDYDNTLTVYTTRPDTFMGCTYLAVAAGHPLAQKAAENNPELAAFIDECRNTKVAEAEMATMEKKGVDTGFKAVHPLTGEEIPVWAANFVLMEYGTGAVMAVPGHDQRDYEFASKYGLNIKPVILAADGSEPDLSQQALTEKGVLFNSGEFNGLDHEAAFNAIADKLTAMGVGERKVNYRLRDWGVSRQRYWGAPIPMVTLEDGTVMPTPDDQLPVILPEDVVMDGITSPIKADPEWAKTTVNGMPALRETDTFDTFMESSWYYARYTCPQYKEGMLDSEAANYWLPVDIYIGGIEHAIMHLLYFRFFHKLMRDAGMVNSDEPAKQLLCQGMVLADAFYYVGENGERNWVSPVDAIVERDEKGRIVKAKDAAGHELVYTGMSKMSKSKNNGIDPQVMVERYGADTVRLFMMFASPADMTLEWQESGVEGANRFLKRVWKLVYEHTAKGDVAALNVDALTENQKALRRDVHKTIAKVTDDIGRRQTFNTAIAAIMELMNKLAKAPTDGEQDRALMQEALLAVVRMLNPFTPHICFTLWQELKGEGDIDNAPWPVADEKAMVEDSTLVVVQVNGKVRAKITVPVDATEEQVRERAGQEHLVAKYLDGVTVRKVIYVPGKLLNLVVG

| SMILES | pIC50 [1] | MIC [2, 3] [µg/mL] | MIC [2, 4] [µg/mL] | pIC50 [1, 5] | MIC [2, 6] [µg/mL] | further results |
| --- | --- | --- | --- | --- | --- | --- |
| CC(=O)c1sccc1[S@@](N)(=O)=NC(=O)[C@@H](N)CC(C)C (single isomer, unassigned) [ANASIA-112-1] | 6.53 | 32 (≈ 101 µM) | 64 (≈ 202 µM) | – | – | – |
| CC(C)C[C@H](N)C(=O)N=S(N)(=O)c1csc(F)c1 (some centres unmarked) [ANASIA-060] | – | – | 16 (≈ 54.5 µM) | 6.64 | 32 (≈ 109 µM) | – |
| CC(C)C[C@H](N)C(=O)N=[S@](N)(=O)c1cc(F)cs1 [ANASIA-062-1] | 7.32 | – | 8 (≈ 27.3 µM) | – | 32 (≈ 109 µM) | – |
| CC(C)C[C@H](N)C(=O)N=S(N)(=O)c1cc(F)c(F)s1 (some centres unmarked) [ANASIA-063] | – | – | 64 (≈ 206 µM) | 6.65 | > 256 | – |
| CCOc1cccc(S(N)(=O)=NC(=O)[C@@H](N)CC(C)C)c1 (some centres unmarked) [ANASIA-066] | – | 64 (≈ 204 µM) | > 64 | 6.26 | – | – |
| CC(C)C[C@H](N)C(=O)N=S(N)(=O)c1sccc1-c1ccccc1 (some centres unmarked) [ANASIA-068] | – | 32 (≈ 91 µM) | > 64 | 6.85 | – | – |
| CC(C)C[C@H](N)C(=O)N=S(N)(=O)c1sccc1F (some centres unmarked) [ANASIA-070] | – | – | 32 (≈ 109 µM) | 6.84 | 64 (≈ 218 µM) | – |
| CC(C)C[C@H](N)C(=O)N=S(N)(=O)c1ccc(F)s1 (some centres unmarked) [ANASIA-071] | – | – | 8 (≈ 27.3 µM) | 6.76 | 32 (≈ 109 µM) | – |
| CC(C)C[C@H](N)C(=O)N=S(N)(=O)c1ccsc1F (some centres unmarked) [ANASIA-074] | – | – | 16 (≈ 54.5 µM) | 7.00 | 32 (≈ 109 µM) | – |
| CC(C)C[C@H](N)C(=O)N=[S@](N)(=O)c1ccccn1.Cl [ANASIA-075-1] | 6.38 | 32 | – | – | – | MIC [2, 7]: > 64 µg/mL |
| CC(C)C[C@H](N)C(=O)N=[S@](N)(=O)c1csc2ccccc12 [ANASIA-083-1] | – | 32 (≈ 98.3 µM) | – | 6.80 | – | MIC [2, 7]: 32 µg/mL (≈ 98.3 µM) |
| CC(C)C[C@H](N)C(=O)N=[S@](N)(=O)c1cccc(C(F)(F)F)c1.Cl [ANASIA-089-1] | 6.71 | 64 | – | – | – | MIC [2, 7]: 64 µg/mL |
| Cc1sccc1[S@@](N)(=O)=NC(=O)[C@@H](N)CC(C)C.Cl [ANASIA-091-1] | 6.07 | 64 | > 64 | – | – | – |
| Cc1cscc1[S@@](N)(=O)=NC(=O)[C@@H](N)CC(C)C.Cl [ANASIA-094-1] | 6.32 | 8 | 64 | – | 128 | – |
| Cc1csc([S@@](N)(=O)=NC(=O)[C@@H](N)CC(C)C)c1.Cl [ANASIA-095-1] | 7.54 | 0.794 | 2 | – | 10.1 | MIC [2, 8]: 8 µg/mL; MIC [2, 9]: 8 µg/mL; MIC [2, 10]: 32 µg/mL |
| Cc1cc([S@@](N)(=O)=NC(=O)[C@@H](N)CC(C)C)cs1.Cl [ANASIA-098-1] | 6.83 | 3.17 | 4 | – | 32 | MIC [2, 8]: 64 µg/mL; MIC [2, 9]: 16 µg/mL; MIC [2, 10]: 64 µg/mL |
| CC(C)C[C@H](N)C(=O)N=[S@](N)(=O)c1csc(Cl)c1.Cl [ANASIA-099-1] | 6.91 | 0.5 | 4 | – | 8 | MIC [2, 8]: 16 µg/mL; MIC [2, 9]: 4 µg/mL; MIC [2, 10]: 64 µg/mL |
| CC(C)C[C@H](N)C(=O)N=[S@](N)(=O)c1csc2ccsc12.Cl [ANASIA-100-1] | 7.56 | 1 | 5.66 | – | 45.3 | MIC [2, 8]: 16 µg/mL; MIC [2, 9]: 16 µg/mL; MIC [2, 10]: 64 µg/mL |
| CC(C)C[C@H](N)C(=O)N=[S@](N)(=O)c1ccc2c(c1)OCO2.Cl [ANASIA-101-1] | 5.78 | 64 | – | – | – | – |
| COc1cccc(S(N)(=O)=NC(=O)[C@@H](N)CC(C)C)c1 (stereo partly drawn) [ANASIA-102, (2S)-2-amino-N-(amino(3-methoxyphenyl)(oxo)-16-sulfaneylidene)-4-methylpentanamide] | – | 16 (≈ 53.4 µM) | > 64 | 6.41 | – | – |
| CC(C)C[C@H](N)C(=O)N=[S@@](N)(=O)c1scc(F)c1F [ANASIA-103-2] | – | 16 (≈ 51.4 µM) | – | 6.68 | – | – |
| Cc1csc([S@@](N)(=O)=NC(=O)[C@@H](N)CC(C)C)c1C.Cl [ANASIA-104-1] | 6.62 | 8 | 16 | – | 128 | – |
| C=Cc1ccc([S@@](N)(=O)=NC(=O)[C@@H](N)CC(C)C)s1 [ANASIA-105-1, (S)-2-amino-N—((S)-amino(oxo)(5-vinylthiophen-2-yl)-λ6-sulfanylidene)-4-methylpentanamide] | 6.31 | 32 (≈ 106 µM) | – | – | – | – |
| CC(C)C[C@H](N)C(=O)N=[S@](N)(=O)c1scc(Br)c1Br.Cl [ANASIA-107-1] | 6.97 | 32 | – | – | – | – |
| COc1ccc([S@@](N)(=O)=NC(=O)[C@@H](N)CC(C)C)s1.Cl [ANASIA-109-1] | 5.59 | 32 | 32 | – | – | – |

| SMILES | pIC50 [1] | MIC [2, 3] [µg/mL] | MIC [2, 4] [µg/mL] | pIC50 [1, 5] | MIC [2, 6] [µg/mL] | further results |
| --- | --- | --- | --- | --- | --- | --- |
| CC(C)C[C@H](N)C(=O)N=S(N)(=O)c1ccccc1O (stereo partly drawn) [ANASIA-113, (2S)-2-amino-N-(amino(2-hydroxyphenyl)(oxo)-λ6-sulfanylidene)-4-methylpentanamide] | – | 64 (≈ 224 µM) | – | 5.49 | – | – |
| CCc1ccsc1[S@@](N)(=O)=NC(=O)[C@@H](N)CC(C)C.Cl [ANASIA-119-1] | 7.00 | 4 | 8 | – | 64 | MIC [2, 8]: 32 µg/mL; MIC [2, 9]: 32 µg/mL; MIC [2, 10]: > 64 µg/mL |
| CC(C)C[C@H](N)C(=O)N=[S@](N)(=O)c1sc(Cl)cc1Cl.Cl [ANASIA-120-1] | 6.53 | 32 | – | – | – | – |
| CC(C)C[C@H](N)C(=O)N=[S@](N)(=O)c1cc(Cl)c(Cl)s1.Cl [ANASIA-121-1] | 7.38 | 8 | 16 | – | > 256 | – |
| Cc1c([S@@](N)(=O)=NC(=O)[C@@H](N)CC(C)C)csc1Cl.Cl [ANASIA-122-1] | 6.78 | 32 | – | – | – | – |
| CC(C)C[C@H](N)C(=O)N=[S@](N)(=O)c1csc(Cl)c1Cl.Cl [ANASIA-125-1] | 6.52 | – | 64 | – | > 256 | – |
| CC(C)C[C@H](N)C(=O)N=[S@](N)(=O)c1ccsc1C(F)F.Cl [ANASIA-126-1] | 6.68 | 5.66 | 32 | – | 256 | MIC [2, 8]: > 64 µg/mL; MIC [2, 9]: > 64 µg/mL; MIC [2, 10]: > 64 µg/mL |
| CC(C)C[C@H](N)C(=O)N=[S@@](N)(=O)c1ccsc1C(F)F [ANASIA-126-2] | – | – | – | 5.76 | – | – |
| CC(C)C[C@H](N)C(=O)N=[S@](N)(=O)c1nc(C(F)F)cs1 [ANASIA-127-1] | 5.16 | – | – | – | – | – |
| CC(C)C[C@H](N)C(=O)N=[S@@](N)(=O)c1nc(C(F)F)cs1 [ANASIA-127-2] | 6.72 | – | – | – | – | – |
| Cc1nc([S@@](N)(=O)=NC(=O)[C@@H](N)CC(C)C)sc1C [ANASIA-128-1] | 5.58 | – | – | – | – | – |
| Cc1nc([S@](N)(=O)=NC(=O)[C@@H](N)CC(C)C)sc1C [ANASIA-128-2] | – | – | – | 5.46 | – | – |
| Cc1nc([S@@](N)(=O)=NC(=O)[C@@H](N)CC(C)C)cs1.Cl [ANASIA-129-1] | 6.50 | – | 64 | – | 128 | – |
| CC(C)C[C@H](N)C(=O)N=[S@](N)(=O)c1cscc1-c1ccccc1 [ANASIA-130-1] | 6.49 | – | – | – | – | – |
| CC(C)C[C@H](N)C(=O)N=[S@@](N)(=O)c1cscc1-c1ccccc1 [ANASIA-130-2] | – | – | – | 5.43 | – | – |
| CC(C)C[C@H](N)C(=O)N=[S@](N)(=O)c1csc2cccnc12.Cl [ANASIA-131-1] | 6.28 | 32 | > 64 | – | 256 | – |
| CC(C)C[C@H](N)C(=O)N=[S@](N)(=O)c1nsc2ccccc12 [ANASIA-132-1] | 5.38 | – | – | – | – | – |
| CCc1csc([S@@](N)(=O)=NC(=O)[C@@H](N)CC(C)C)c1 [ANASIA-133-1, (S)-2-amino-N—((S)-amino(4-ethylthiophen-2-yl)(oxo)-λ6-sulfanylidene)-4-methylpentanamide] | 7.01 | – | 8 (≈ 26.4 µM) | – | 128 (≈ 422 µM) | – |
| CCc1csc([S@](N)(=O)=NC(=O)[C@@H](N)CC(C)C)c1 [ANASIA-133-2, (S)-2-amino-N—((R)-amino(4-ethylthiophen-2-yl)(oxo)-λ6-sulfanylidene)-4-methylpentanamide] | 5.20 | – | – | – | – | – |
| CC(C)C[C@H](N)C(=O)N=[S@](N)(=O)c1cc(Cl)sc1Cl [ANASIA-134-1] | 5.29 | – | – | – | – | – |
| CC(C)C[C@H](N)C(=O)N=[S@](N)(=O)c1csc(C#N)c1 [ANASIA-135-1] | 5.29 | – | – | – | – | – |
| CC(C)C[C@H](N)C(=O)N=[S@@](N)(=O)c1cc(C#N)cs1 [ANASIA-136-2] | – | – | – | 5.85 | – | – |
| Cc1ncc([S@@](N)(=O)=NC(=O)[C@@H](N)CC(C)C)s1 [ANASIA-137-1] | 5.57 | – | – | – | – | – |
| Cc1ncc([S@](N)(=O)=NC(=O)[C@@H](N)CC(C)C)s1 [ANASIA-137-2] | – | – | – | 5.05 | – | – |
